In patent US20060270615A1, “Compositions suitable for the treatment of damage caused by ischemia/reper-fusion or oxidative stress” (N.V. NUTRICIA, priority 2000, published 2006):
“And” between values parts separate entries of the source, which are not always exact repeats. Equal values may be shown once.

Tests used:
[1] = biological target: T1, xanthine oxidase (grade I from buttermilk) (Bos taurus, UniProt P80457); experiment: Xanthine oxidase inhibition (xanthine oxidase assay), uric acid production; type: biochemical; settings: xanthine substrate, pH 7.8, absorbance at 295 nm; for IC50: read-out: IC-50 xanthine oxidase inhibition (converted)
T1 construct: XOD (xanthine oxidase) (grade I from buttermilk); from tissue; host or cells: buttermilk
Experimental: Xanthine Oxidase Inhibition (Xanthine Oxidase Assay)
The activity of xanthine oxidase is determined by means of the uric acid production.
This solution is maintained on ice during the entire experiment to prevent changes in the activity of the enzyme.
724 μl phophate buffer pH=7.8
10 μl DMSO or the substance to be tested dissolved in DMSO
The reaction is started by addition of 66 μl of the enzyme solution to the above described assay mixture. […] If the reaction is linear, the result is expressed as Δ absorbance/min. […] The maximum activity is the activity of the enzyme, when no substance is dissolved in DMSO.

[2] = Peroxyl radical scavenging (β-phycoerythrin fluorescence assay, ORACROO); type: biochemical; set-up: key to TE (Trolox equivalent) (based on mole weight): ratio of net curve area to Trolox's, molar basis; settings: relative to Trolox, area under fluorescence curve
Experimental: In the β-phycoerythrin fluorescence based assay the reduction of β-phycoerythrin decomposition by radicals resulting from the thermal decomposition of V50 is measured. […]
Peroxyl Radical Scavenging (β-phycoerythrin fluorescence assay)
The principle underlying the present method is that B-phycoerythrin is decomposed by radicals that are the result of the thermolitic decomposition of V50 at 20° C. When a product scavenges these radicals, the decrease in fluorescence in time will occur less quickly. All measurements should be carried out at least in threefold.
AAPH (2,2′-azobis(2-aminopropane)dihydrochloride) (e.g. from Wako Chemicals)=V50; MW=271.19 g/mol; 16 mM in the assay
β-PE (e.g. from Sigma) MW=240,000 g /mol; 16.7 nM in the assay
Trolox (e.g. from Aldrich) MW =250.29 g/mol; in the assay test in the range of 1-10 μM.
Each tray should contain trolox as a reference and as a standard (2 μM or 0.5 mg/l). As a negative control a sample is taken containing only 10 μl ethanol, 50 μl 50 mM PBS, pH=7.4 and 50 μl 66.8 nM β-PE.
The reaction is started by adding 100 μl 32nM V-50. The time between pipetting and mixing of this last step in a well and the measurement of this well, should be constant. Further, the time between the last pipetting step in a well and the first measurement of the well should be less than 2 minutes.
V-50 should be stored in the dark at 4° C. until used. The reaction kinetics of the wells are monitored in a continuous monitoring process. The excitation wavelength is 540 nm, while the emission wavelength is 565 nm. The reaction is monitored until the signal of the sample differs no longer from the background signal (±10%). The area underneath the curve of the negative reference is subtracted from the area underneath the substance to be measured. This difference in area is then related to a difference in area in relation to a negative reference resulting from trolox.

T1 sequence (P80457 whole entry): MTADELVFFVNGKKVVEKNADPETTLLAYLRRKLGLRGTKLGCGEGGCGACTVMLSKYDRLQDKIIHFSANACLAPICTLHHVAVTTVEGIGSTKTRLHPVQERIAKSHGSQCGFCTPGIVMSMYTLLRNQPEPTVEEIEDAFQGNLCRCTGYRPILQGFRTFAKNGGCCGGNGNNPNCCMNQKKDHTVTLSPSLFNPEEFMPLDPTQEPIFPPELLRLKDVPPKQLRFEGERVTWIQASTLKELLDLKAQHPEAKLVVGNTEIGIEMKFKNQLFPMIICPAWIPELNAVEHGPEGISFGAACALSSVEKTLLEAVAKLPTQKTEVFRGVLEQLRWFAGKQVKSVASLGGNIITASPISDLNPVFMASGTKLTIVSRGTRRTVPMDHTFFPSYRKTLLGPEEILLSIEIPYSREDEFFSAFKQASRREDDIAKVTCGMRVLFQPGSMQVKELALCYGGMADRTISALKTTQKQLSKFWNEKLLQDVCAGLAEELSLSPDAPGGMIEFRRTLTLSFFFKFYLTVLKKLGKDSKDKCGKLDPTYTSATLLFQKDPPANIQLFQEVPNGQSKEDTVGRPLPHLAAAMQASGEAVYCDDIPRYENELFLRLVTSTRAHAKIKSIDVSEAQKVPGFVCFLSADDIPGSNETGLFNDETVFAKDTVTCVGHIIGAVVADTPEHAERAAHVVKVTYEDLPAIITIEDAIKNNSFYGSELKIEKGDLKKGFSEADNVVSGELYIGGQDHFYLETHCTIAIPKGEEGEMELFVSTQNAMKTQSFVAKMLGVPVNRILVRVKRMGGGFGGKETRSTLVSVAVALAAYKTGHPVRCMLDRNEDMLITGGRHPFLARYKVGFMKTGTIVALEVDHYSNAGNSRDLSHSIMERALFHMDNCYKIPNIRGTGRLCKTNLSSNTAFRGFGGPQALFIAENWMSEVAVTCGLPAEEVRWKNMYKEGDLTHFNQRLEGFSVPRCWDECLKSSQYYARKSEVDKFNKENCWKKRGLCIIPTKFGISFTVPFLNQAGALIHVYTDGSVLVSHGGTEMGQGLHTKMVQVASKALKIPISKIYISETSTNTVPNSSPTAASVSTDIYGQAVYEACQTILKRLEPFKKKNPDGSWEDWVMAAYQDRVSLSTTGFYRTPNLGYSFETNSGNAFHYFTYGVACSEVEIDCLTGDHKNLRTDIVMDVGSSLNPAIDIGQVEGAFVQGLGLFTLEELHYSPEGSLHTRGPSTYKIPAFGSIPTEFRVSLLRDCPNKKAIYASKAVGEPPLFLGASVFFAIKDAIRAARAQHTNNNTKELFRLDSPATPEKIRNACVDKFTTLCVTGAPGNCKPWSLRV

Row | SMILES | IC50 [1] | TE (Trolox equivalent) (based on mass) [2] | TE (Trolox equivalent) (based on mole weight) [2] | IC-50 xanthine oxidase inhibition [1]
1 | O=c1cc(-c2ccc(O)c(O)c2)oc2cc(O)cc(O)c12 [Luteolin] | 751 nM and 750 nM | 1.22 | 1.40 | 
2 | O=c1c(O)c(-c2ccc(O)c(O)c2)oc2cc(O)cc(O)c12 [quercetin] |  | 1.32 | 1.78 | 
3 | O=c1cc(-c2ccccc2)oc2cc(O)cc(O)c12 [Chrysin] | 2540 nM and 2500 nM |  |  | 
4 | COc1cc(/C=C/C(=O)CC(=O)/C=C/c2ccc(O)c(OC)c2)ccc1O [Curcumin] |  |  |  | not detectable
5 | O=c1c(O)c(-c2cc(O)c(O)c(O)c2)oc2cc(O)cc(O)c12 [Myricetin] | 1510 nM and 1500 nM | 0.89 | 1.13 | 
6 | O=c1cc(-c2ccc(O)cc2)oc2cc(O)cc(O)c12 [Apigenin] | 999 nM and 1000 nM | 1.56 | 1.69 | 
7 | O=C1c2ccc(O)cc2O[C@H](c2ccc(O)c(O)c2)[C@H]1O [fustin] |  | 1.07 | 1.24 | 
8 | O=C(O[C@@H]1Cc2c(O)cc(O)cc2O[C@@H]1c1cc(O)c(O)c(O)c1)c1cc(O)c(O)c(O)c1 [Epigalo-catechin-galate (ECCG), Epigalo-catechin-galate] |  | 0.54 | 0.99 | not detectable
9 | Oc1cc(O)c2c(c1)O[C@H](c1ccc(O)c(O)c1)[C@H](O)C2 [Epicatechin] |  |  |  | not detectable
